In patent US11369592B2 (priority 2020, dated 2022):
pEC50: −log10 of the molar value. Like-named read-outs stand apart in the source and are kept apart here.

Tests used:
[1] = tested on: MucilAir™-Pool human airway epithelium infected with SARS-CoV-2; assay: Tissue integrity (TEER) upon SARS-CoV-2 infection in MucilAir-Pool, Phase 2; assay type: cell-based
endogenous esterases = conditions: Kang (1996) Glycobiology; cited from earlier work
[2] = tested on: MucilAir™-Pool human airway epithelium; assay: Cilia beating frequency (CBF) on MucilAir-Pool, Phase 1; assay type: cell-based; conditions: Day 3, room temperature
Description: Effect on cilia included cilia motion: Cilia Beating Frequency (CBF).
(§1) Repeated basolateral exposure once a day of test compounds on MucilAir™-Pool. Transepithelial electrical resistance (TEER) was assessed each day. LDH release indicating cytotoxicity, was measured at Day 2 and 3 (24 hours accumulation). Cilia beating frequency (CBF) was measured once, at the end of the experiment, at Day 3. (FIG. 7)
(§2) Number of concentrations: 3 doses • Celgosivir=100, 30 and […] on basolateral side in 0.2% DMSO and 2% fetal bovine serum
Cilia beating frequency was monitored using a MAKO G030B camera connected to a ZEISS Primovert microscope with a 5× objective.
CBF measurement is based on the capture of 256 frames at high frequency rate (125 frames per second) at room temperature via the specific package of software. The frequency is expressed as Hertz and was calculated using an Epithelix software.

[3] = tested on: Influenza A H1N1/California/07/2009; assay: CPE inhibition assay (visual and neutral red); conditions: for pEC50: Influenza A virus, H1N1; for EC50 (cell spans EC50, CC50, SI): MA-104 or MDCK, Visual or Neutral Red, concentration range 0.3-300
Human rhinovirus 14/1059 = assay: CPE inhibition assay (visual and neutral red); conditions: for EC50 (cell spans EC50, CC50, SI): MA-104 or MDCK, Visual or Neutral Red, concentration range 0.3-300; for pEC50: Rhinovirus B
[4] = tested on: MucilAir™-Pool human airway epithelium; assay: Tissue integrity (TEER) of uninfected MucilAir-Pool, Phase 1; assay type: cell-based; conditions: all three tested concentrations, up to three days; threshold 100 Ω·cm^2
Description: (§3) The testing strategies includes basolateral exposure of test compounds on MucilAir™-Pool.
(§4) Global markers of Toxicity included (1) Tissue integrity monitoring: Trans-epithelial electrical resistance (TEER) measurement and (2) Cytotoxicity: Lactate dehydrogenase (LDH) assay.
as §1, §2
TEER is a dynamic parameter that reflects the state of epithelia and is typically between 200 to 600 Ω·cm^2. An increase of the TEER value reflects a blockage of the ion channel activities. A notable decrease of the TEER values (but >100 Ω·cm^2) could be observed in certain cases, reflecting an activation of the ion channels. Disruption of cellular junction or holes in the epithelia result in TEER values below 100 Ω·cm^2. […]
After addition of 200 μl of 0.9% saline solution to the apical compartment of MucilAir™ cultures, resistance was measured with an EVOMX volt-ohm-meter (World Precision Instruments UK, Stevenage) for each condition. […]

[5] = tested on: Influenza H5 N1/Duck/MN/1525/81; assay: organism not typed
[6] = tested on: Influenza H5 N1/Duck/MN/1525/81
[7] = cited from earlier work
[8] = Pharmacokinetic simulations using CELADEN castanospermine parameters; design: species or system human; conditions: linear extrapolation
Description: It is known that a steady state minimum castanospermine concentration of 400 nanograms/ml is associated with a 50 mg/kg BID dose in mice and that the antiviral effect of celgosivir in vivo seems to be correlated with the minimum steady state concentration of castanospermine. […] International Publication No. WO 2014/143907 discloses pharmacokinetic parameters for castanospermine for the CELADEN study. […] Extrapolating linearly, therefore, the minimum protective dose (achieving 400 nanograms/ml steady state minimum) is approximately 40 mg every 6h, 75 mg every 8 h and 225 mg every 12 h. Further, WO 2014/143907 discloses that the CELADEN study regimen produce a steady state maximum castanospermine concentration of 5100 nanograms/ml. […] The FDA has published generic scaling factors to adjust mg/kg dosing in animals to mg/kg dosing in humans. Generically for mice, that scaling factor is 12. Therefore, 50 mg/kg BID is equivalent to a dose of 4.2 mg/kg BID in humans, which for a 60 kg human is equivalent to 250 mg. The same dose administered three or four times daily is equivalent to 167 mg and 125 mg and 2.8 and 2.1 mg/kg respectively. In a 60 kg human, the maximum single dose is 6.7 mg/kg, and the maximum daily dose is 10 mg/kg.

[9] = tested on: MucilAir™-Pool human airway epithelium; assay: Lactate dehydrogenase (LDH) cytotoxicity assay on MucilAir-Pool, Phase 1; assay type: cell-based
Description: as §3, §4
as §1, with “7) […]” for “7)”
Lactate dehydrogenase is a stable cytoplasmic enzyme that is rapidly released into the culture medium upon rupture of the plasma membrane. 100 μL basolateral medium collected at each time-point was incubated with the reaction mixture of the Cytotoxicity Detection Kit^PLUS, following manufacturer's instructions (Sigma, Roche, 11644793001). The amount of the released LDH was then quantified by measuring the absorbance of each sample at 490 nm with a microplate reader. To determine the percentage of cytotoxicity, the following equation was used (A=absorbance values): Cytotoxicity (%)=(A (exp value)−A (low control)/A (high control)−A (low control))*100
The high control value was obtained by 10% Triton X-100 treatment 24 hours prior to the assay. Triton X-100 causes a massive LDH release and corresponds to 100% cytotoxicity.

SARS-CoV-2 [10] = assay: SARS-CoV-2 apical replication in MucilAir-Pool (genome copies ORF1b-nsp14, Taqman RT-PCR); assay type: cell-based
[11] = over the tolerated dose range; cited from earlier work
[12] = tested on: Influenza B/Brisbane/60/2008; assay: CPE inhibition assay (visual and neutral red); conditions: for pEC50: Influenza B virus; for EC50 (cell spans EC50, CC50, SI): MA-104 or MDCK, Visual or Neutral Red, concentration range 0.3-300
[13] = tested on: Influenza B/Florida/4/2006; assay: CPE inhibition assay (visual and neutral red); conditions: for pEC50: Influenza B virus; for EC50 (cell spans EC50, CC50, SI): MA-104 or MDCK, Visual or Neutral Red, concentration range 0.3-300
[14] = tested on: Parainfluenza virus 3/14702; assay: CPE inhibition assay (visual and neutral red); conditions: for EC50 (cell spans EC50, CC50, SI): MA-104 or MDCK, Visual or Neutral Red, concentration range 0.3-300
SARS-CoV-2 [15] = assay: SARS-CoV-2 apical infectious titre in MucilAir-Pool (TCID50); conditions: for reduction of SARS-CoV-2 titre at apical side: 48 hours
[16] = mice; 50 mg/kg BID dose; cited from earlier work

With `CCCC(=O)O[C@H]1CN2CC[C@H](O)[C@@H]2[C@@H](O)[C@@H]1O` [Celgosivir, 6-O-butanoyl castanospermine] the “effect against virus-induced cytopathology” value ([1]; 3 microM) was “diminished extent”, the “SARS-CoV-2 induced decrease of TEER” value ([1]; 30 and 100 μM, 48 and 72 hours post-inoculation) was “prevented” and the “effect against virus-induced cytopathology” value ([1]; 30 and 100 microM) was “protective effective”. For the same compound, the conversion to castanospermine (endogenous esterases) was “rapidly converted by endogenous esterases to castanospermine”, the “crossing of cell membranes” value (endogenous esterases) was “readily crosses cell membranes” and the “cilia motion (cilia beating frequency)” value [2] was “did not modify significantly”. The pEC50 [3] was < 3.52, the “EC50 (cell spans EC50, CC50, SI)” value [3] was “Not active” and the “EC50 (cell spans EC50, CC50, SI)” value (Human rhinovirus 14/1059) was “Not active”. The pEC50 (Human rhinovirus 14/1059) was < 3.52, the “Epithelial barrier function (TEER)” value [4] was > 100 Ω·cm^2 and the pEC50 [5] was < 3.52. For the same compound, the “EC50 (cell spans EC50, CC50, SI)” value [6] was “Not active”, the adverse event profile ([7]; CELADEN study dose) was “higher incidence of GI effects, but not increased severity” and the “maximum daily dose as a total dose” value ([7]; human, in theory) was 600 mg. For the same compound, the “maximum dose as a single dose” value ([7]; human, in theory) was 400 mg, the “minimum protective dose (achieving 400 nanograms/ml steady state minimum)” value (“minimum protective dose” for short) ([8]; every 6h) was “approximately 40 mg” and the “minimum protective dose” value ([8]; every 8 h) was ~75 mg. For the same compound, the “minimum protective dose” value ([8]; every 12 h) was ~225 mg, the “cytotoxicity (LDH release)” value ([9]; Day 2 and 3, threshold limit 5% cytotoxicity) was “No cytotoxicity” and the “evidence of cytotoxicity (TEER, cytotoxicity and CBF values versus controls)” value ([9]; concentrations at or below 100 microM) was “did not exhibit evidence of cytoxicity”. The “reduction of viruses (genome copies)” value (SARS-CoV-2 [10]; 30 mM (so in the source), 48 hours) was 1.2 log10, the “reduction of viruses (genome copies)” value (SARS-CoV-2 [10]; 30 mM (so in the source), later time point (72 hours)) was 0.9 log10 and the “reduction of viruses (genome copies)” value (SARS-CoV-2 [10]; 100 mM (so in the source), 48 hours) was 1.4 log10. The “reduction of viruses (genome copies)” value (SARS-CoV-2 [10]; 100 mM (so in the source), later time point (72 hours)) was 1 log10, the “inhibition of SARS-CoV-2 replication, dose relation” value (SARS-CoV-2 [10]; 3 doses, basolateral once a day for 3 days) was “dose dependent inhibition” and the SARS-CoV-2 replication (SARS-CoV-2 [10]; 3 microM) was “diminished extent”. The SARS-CoV-2 replication (SARS-CoV-2 [10]; 30 and 100 microM) was “decreased”, the pharmacokinetics versus dose [11] was “linear with dose” and the pEC50 [12] was < 3.52. The “EC50 (cell spans EC50, CC50, SI)” value [12] was “Not active”, the pEC50 [13] was < 3.52 and the “EC50 (cell spans EC50, CC50, SI)” value [13] was “Not active”. For the same compound, the pEC50 [14] was < 3.52, the “EC50 (cell spans EC50, CC50, SI)” value [14] was “Not active” and the “reduction of SARS-CoV-2 titre at apical side” value (SARS-CoV-2 [15]; 30 mM (so in the source)) was 1 log10. For the same compound, the “reduction of SARS-CoV-2 titre at apical side” value (SARS-CoV-2 [15]; 100 mM (so in the source)) was 1.9 log10, the “yield of viral progeny” value (SARS-CoV-2 [15]; 3 microM) was “diminished extent” and the “yield of viral progeny” value (SARS-CoV-2 [15]; 30 and 100 microM) was “decreased”. For the same compound, the “reducing effect on SARS-CoV-2 titre” value (SARS-CoV-2 [15]; 72 hours, concentration not given) was 1.1 log.

In the case of `NC(=O)c1ncn([C@@H]2O[C@H](CO)[C@@H](O)[C@H]2O)n1` [Ribavirin, reference compound], the pEC50 [3] was > 5.00, the pEC50 (Human rhinovirus 14/1059) was > 5.00 and the pEC50 [5] was > 5.00. The pEC50 [12] was > 5.00, the pEC50 [13] was > 5.00 and the pEC50 [14] was > 5.00.

In the case of `O[C@H]1[C@H](O)[C@@H](O)CN2CC[C@H](O)[C@H]12` [castanospermine, (1S,6S,7R,8aR)-Tetrahydroxyoctahydroindolizine], the pEC50 [3] was < 3.52, the “EC50 (cell spans EC50, CC50, SI)” value [3] was “Not active” and the “EC50 (cell spans EC50, CC50, SI)” value (Human rhinovirus 14/1059) was “Not active”. The pEC50 (Human rhinovirus 14/1059) was < 3.52, the pEC50 [5] was < 3.52 and the “EC50 (cell spans EC50, CC50, SI)” value ([6]; MA-104 or MDCK, Visual or Neutral Red, concentration range 0.3-300) was “Not active”. The “steady state maximum castanospermine concentration” value ([7]; CELADEN study regimen) was 5100 nanograms/ml, the pEC50 [12] was < 3.52 and the “EC50 (cell spans EC50, CC50, SI)” value [12] was “Not active”. For the same compound, the pEC50 [13] was < 3.52, the “EC50 (cell spans EC50, CC50, SI)” value [13] was “Not active” and the pEC50 [14] was < 3.52. The “EC50 (cell spans EC50, CC50, SI)” value [14] was “Not active” and the “steady state minimum castanospermine concentration” value [16] was 400 nanograms/ml.

In the case of Triton X-100 [reference compound], the “induced toxicity (LDH release)” value ([9]; 10% Triton X-100 solution, apical, 24 h, high control) was 100%.
